Test results: patent US20210085711A1 (Japan Tobacco Inc., priority 2017, published 2021)

Columns and labels:
Format in all cases: in vivo, human
[1] = system: patients with hypermenorrhea and/or patients with hypermenorrhea-associated gynecologic diseases (iron-deficiency anemia patients); assay: Phase II clinical trial of JTT-751: serum ferritin value
Procedure: (§1) This test was a three-stage safety and efficacy clinical trial at multi-facilities. The first stage was a pre-observation period (Day −40 to Day −1), the second stage was an administration period (Day 1 to Day 48) (efficacy and safety evaluation period), and the third stage was a post-observation period (Day 49 to Day 63) (efficacy and safety evaluation period). The safety evaluation and efficacy evaluation were performed by multi-facility collaboration, placebo control, random allocation, double-blind trial, and parallel group comparison test.
(§2) (1) Japanese patients who are 20 or more and less than 65 years old at the time of agreement and can visit an outpatient clinic (2) Patients who have an Hb value (measured using HemoCue® Hb 201 DM analyzer in the institute of clinical practice) of 7.0 g/dL or more and less than 11.0 g/dL on both the observation start date and Week 0, and the difference between the two days is 1.0 g/dL or less (3) Patients with a TIBC of 360 μg/dL or more or a serum ferritin value of less than 12 ng/mL on the observation start date
(§3) The administration period of the trial drug is seven weeks which starts from the next day of the Week 0 visit to the day before the Week 7 visit, provided that the trial drug is not taken on the scheduled Week 3 visit.
(2) Subsidiary evaluation items 1) Erythrocyte-related examination values and amount of change from Week 0 at each observation date 2) Iron-related test values and amount of change from Week 0 at each observation date 3) Achievement rate of target Hb value (female; 12.0 g/dL or more, male; 13.0 g/dL or more) at each observation date 4) Achievement rate of 1.0 g/dL or more and achievement rate of 2.0 g/dL or more in Hb value improvement from Week 0 at each observation date 5) Average daily change of Hb value from Week 0 to each observation date
(§4) The blood hemoglobin value (Hb), the serum iron level, the serum ferritin value, the total iron-binding capacity (TIBC) and the transferrin saturation rate (TSAT), and the mean corpuscular volume (MCV) were each examined at the observation start date, Week 0, Week 3, Week 7, the end of administration and the consultation at nine weeks after Week 0; the hepcidin concentration (Hepcidin 25) and the serum soluble transferrin receptor concentration (sTfR) were each examined on Week 0, Week 3 and Week 7 and at the end of administration; and the C-terminal FGF23 value (cFGF23) and the intact FGF23 value (iFGF23) were each examined on Week 0 and Week 7 and at the end of administration.

[2] = system: patients with hypermenorrhea and/or patients with hypermenorrhea-associated gynecologic diseases (iron-deficiency anemia patients); assay: Phase II clinical trial of JTT-751: intact FGF23 value (iFGF23)
Procedure: as §1, §2, §3, §4

[3] = system: patients with hypermenorrhea and/or patients with hypermenorrhea-associated gynecologic diseases (iron-deficiency anemia patients); assay: Phase II clinical trial of JTT-751: C-terminal FGF23 value (cFGF23)
Procedure: as §1, §2, §3, §4

[4] = 250 mg/day, 9 weeks after Week 0
[5] = 250 mg/day, End of administration
[6] = 250 mg/day, Week 3 (Week 0 not given)
[7] = 500 mg/day, 9 weeks after Week 0
[8] = 500 mg/day, End of administration
[9] = 500 mg/day, Week 3 (Week 0 not given)
[10] = 1000 mg/day, 9 weeks after Week 0
[11] = 1000 mg/day, End of administration
[12] = 1000 mg/day, Week 3 (Week 0 not given)
[13] = 1500 mg/day, 9 weeks after Week 0
[14] = 1500 mg/day, End of administration
[15] = 1500 mg/day, Week 3 (Week 0 not given)
[16] = End of administration, JTT-751 250 mg group
[17] = End of administration, JTT-751 500 mg group
[18] = End of administration, JTT-751 1000 mg group
[19] = End of administration, JTT-751 1500 mg group
[20] = Week 0 (baseline), JTT-751 250 mg group
[21] = Week 0 (baseline), JTT-751 500 mg group
[22] = Week 0 (baseline), JTT-751 1000 mg group
[23] = Week 0 (baseline), JTT-751 1500 mg group

## Ferric citrate [JTT-751]
[1]; [4]
  Ferritin, Mean: 2.88 ng/mL
  Ferritin, Median: 2.60 ng/mL
[1]; [5]
  Ferritin, Mean: 11.38 ng/mL
  Ferritin, Median: 11.45 ng/mL
[1]; [6]
  Ferritin, Mean: 11.16 ng/mL
  Ferritin, Median: 7.70 ng/mL
[1]; 250 mg/day, Week 7
  Ferritin, Mean: 11.38 ng/mL
  Ferritin, Median: 11.45 ng/mL
[1]; [7]
  Ferritin, Mean: 4.28 ng/mL
  Ferritin, Median: 3.60 ng/mL
[1]; [8]
  Ferritin, Mean: 16.12 ng/mL
  Ferritin, Median: 14.30 ng/mL
[1]; [9]
  Ferritin, Mean: 15.26 ng/mL
  Ferritin, Median: 12.40 ng/mL
[1]; 500 mg/day, Week 7
  Ferritin, Mean: 16.12 ng/mL
  Ferritin, Median: 14.30 ng/mL
[1]; [10]
  Ferritin, Mean: 7.51 ng/mL
  Ferritin, Median: 7.20 ng/mL
[1]; [11]
  Ferritin, Mean: 17.02 ng/mL
  Ferritin, Median: 16.30 ng/mL
[1]; [12]
  Ferritin, Mean: 26.96 ng/mL
  Ferritin, Median: 23.20 ng/mL
[1]; 1000 mg/day, Week 7
  Ferritin, Mean: 17.02 ng/mL
  Ferritin, Median: 16.30 ng/mL
[1]; [13]
  Ferritin, Mean: 5.83 ng/mL
  Ferritin, Median: 5.35 ng/mL
[1]; [14]
  Ferritin, Mean: 17.38 ng/mL
  Ferritin, Median: 16.60 ng/mL
[1]; [15]
  Ferritin, Mean: 20.43 ng/mL
  Ferritin, Median: 22.20 ng/mL
[1]; 1500 mg/day, Week 7
  Ferritin, Mean: 17.38 ng/mL
  Ferritin, Median: 16.60 ng/mL
[1]; continuous administration from Week 0 to Week 3
  serum ferritin value (printed: serum iron level), increased to a normal value: 12 to 30 ng/mL
[2]; 1000 mg administration group and 1500 mg administration group
  intact FGF23 value (iFGF23), time-dependent change: decreased along with the continuous administration of the JTT-751 tablet and improved
[2]; [16]
  iFGF23, Mean: 34.74 pg/mL
  iFGF23, Median: 33.65 pg/mL
[2]; [17]
  iFGF23, Mean: 41.06 pg/mL
  iFGF23, Median: 38.20 pg/mL
[2]; [18]
  iFGF23, Mean: 33.62 pg/mL
  iFGF23, Median: 30.40 pg/mL
[2]; [19]
  iFGF23, Mean: 36.30 pg/mL
  iFGF23, Median: 35.00 pg/mL
[2]; [20]
  iFGF23, Mean: 36.73 pg/mL
  iFGF23, Median: 33.90 pg/mL
[2]; [21]
  iFGF23, Mean: 43.53 pg/mL
  iFGF23, Median: 42.05 pg/mL
[2]; [22]
  iFGF23, Mean: 41.93 pg/mL
  iFGF23, Median: 42.50 pg/mL
[2]; [23]
  iFGF23, Mean: 46.09 pg/mL
  iFGF23, Median: 44.00 pg/mL
[2]; Week 7, JTT-751 250 mg group
  iFGF23, Mean: 34.74 pg/mL
  iFGF23, Median: 33.65 pg/mL
[2]; Week 7, JTT-751 500 mg group
  iFGF23, Mean: 41.06 pg/mL
  iFGF23, Median: 38.20 pg/mL
[2]; Week 7, JTT-751 1000 mg group
  iFGF23, Mean: 33.62 pg/mL
  iFGF23, Median: 30.40 pg/mL
[2]; Week 7, JTT-751 1500 mg group
  iFGF23, Mean: 36.30 pg/mL
  iFGF23, Median: 35.00 pg/mL
[3]; [5]
  cFGF23, Mean: 214.72 RU/mL
  cFGF23, Median: 158.50 RU/mL
[3]; 250 mg/day, Week 0 (baseline)
  cFGF23, Mean: 779.17 RU/mL
  cFGF23, Median: 705.00 RU/mL
[3]; 250 mg/day, Week 7
  cFGF23, Mean: 214.72 RU/mL
  cFGF23, Median: 158.50 RU/mL
[3]; [8]
  cFGF23, Mean: 151.89 RU/mL
  cFGF23, Median: 127.50 RU/mL
[3]; 500 mg/day, Week 0 (baseline)
  cFGF23, Mean: 1011.06 RU/mL
  cFGF23, Median: 773.50 RU/mL
[3]; 500 mg/day, Week 7
  cFGF23, Mean: 151.89 RU/mL
  cFGF23, Median: 127.50 RU/mL
[3]; [11]
  cFGF23, Mean: 130.39 RU/mL
  cFGF23, Median: 100.00 RU/mL
[3]; 1000 mg/day, Week 0 (baseline)
  cFGF23, Mean: 675.16 RU/mL
  cFGF23, Median: 564.00 RU/mL
[3]; 1000 mg/day, Week 7
  cFGF23, Mean: 130.39 RU/mL
  cFGF23, Median: 100.00 RU/mL
[3]; [14]
  cFGF23, Mean: 114.92 RU/mL
  cFGF23, Median: 94.20 RU/mL
[3]; 1500 mg/day, Week 0 (baseline)
  cFGF23, Mean: 842.52 RU/mL
  cFGF23, Median: 777.00 RU/mL
[3]; 1500 mg/day, Week 7
  cFGF23, Mean: 114.92 RU/mL
  cFGF23, Median: 94.20 RU/mL
[3]; continuous administration
  C-terminal FGF23 value (cFGF23), time-dependent change: decreased along with the continuous administration
